In US8119563B2, “N-substituted azacycles” (FMC Corporation, priority 2003, dated 2012):

Test system: tobacco budworm (Heliothis virescens [Fabricius])
Test: surface-treated diet test, insecticidal activity against tobacco budworm
Format: in vivo
Conditions: 0.25 millimoles of candidate insecticide on the surface of the diet, second instar larvae, five-day exposure; for Percent Mortality: compared to total number of insects infested; for Percent Growth Inhibition: inhibition of insect weight relative to untreated controls
Procedure, shortened: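 Wheat germ artificial diet surface-treated with compound from 50 mM DMSO stock diluted 1:7 in 1:1 water/acetone (0.25 millimolar on diet), or lower-rate dilutions; DMSO-only controls. One second-instar larva per well, 25° C, 60% RH, 14 h light, five days; percent weight inhibition versus untreated and percent mortality scored.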

Compound | Percent Mortality | Percent Growth Inhibition
COCCON=Cc1ccc(CN2CCC(O)(C(c3ccc(OC(F)(F)F)cc3)c3ccc(OC(F)(F)F)cc3)CC2)cc1 [Compound 266] | 100% | 100%
Cc1cc(Cl)ccc1C(c1ccc(OC(F)(F)F)cc1)C1(O)CC[N+]([O-])(Cc2ccc(Oc3ccccn3)cc2)CC1 (stereo not drawn) [Compound 461] | 100% | 100%
O=C(NCc1ccc(Cl)c(Cl)c1)Oc1ccc(CN2CCC(O)(C(c3ccc(OC(F)(F)F)cc3)c3ccc(OC(F)(F)F)cc3)CC2)cc1 [Compound 323] | 33% | 100%
[O-][N+]1(Cc2ccc(Oc3ccccn3)cc2)CCC2(CC1)OC2(c1ccc(OC(F)(F)F)cc1)c1ccc(OC(F)(F)F)cc1 (stereo not drawn) [Compound 431] | 100% | 100%
[O-][N+]1(Cc2ccc(OCC3CC3)cc2)CCC(O)(C(c2ccc(OC(F)(F)F)cc2)c2ccc(OC(F)(F)F)cc2)CC1 (stereo not drawn) [Compound 392] | 100% | 100%
CC(C)Oc1ccc(CN2CCC(O)(C(c3ccc(C(F)(F)F)cc3)c3ccc(C(F)(F)F)cc3)CC2)cc1 [Compound 303] | 100% | 100%
[O-][N+]1(Cc2ccc(Oc3ccccn3)cc2)CCC(O)(C(c2ccc(C(F)(F)F)cc2)c2ccc(C(F)(F)F)cc2)CC1 (stereo not drawn) [Compound 111] | 100% | 100%
OC1(C(c2ccc3c(c2)OC(F)(F)O3)c2ccc3c(c2)OC(F)(F)O3)CCN(Cc2ccc(Oc3ccccn3)cc2)CC1 [Compound 446] | 100% | 100%
[O-][N+]1(Cc2ccc(Oc3ccccn3)cc2)CCC(O)(C(c2ccc(OC(F)F)cc2)c2ccc(OC(F)(F)F)cc2)CC1 (stereo not drawn) [Compound 347] | 100% | 100%
[O-][N+]1(Cc2ccc(Oc3ncccn3)cc2)CCC(O)(C(c2ccc(Cl)c(F)c2)c2ccc(Cl)c(F)c2)CC1 (stereo not drawn) [Compound 115] | 50% | 100%
OC(COc1ccccc1Cl)CN1CCC(O)(C(c2ccc(OC(F)(F)F)cc2)c2ccc(OC(F)(F)F)cc2)CC1 (stereo not drawn) [Compound 472] | 17% | 93%
[O-][N+]1(Cc2ccc(Oc3ncccn3)cc2)CCC(O)(C(c2ccc(OC(F)(F)C(F)C(F)(F)F)cc2)c2ccc(OC(F)(F)C(F)C(F)(F)F)cc2)CC1 (stereo not drawn) [Compound 409] | 100% | 100%
O=C(NC1CCCCC1)Oc1ccc(CN2CCC(O)(C(c3ccc(OC(F)(F)F)cc3)c3ccc(OC(F)(F)F)cc3)CC2)cc1 [Compound 329] | 67% | 100%
CC(C)OC(=O)Nc1ccc(CN2CCC(O)(C(c3ccc(OC(F)(F)F)cc3)c3ccc(OC(F)(F)F)cc3)CC2)cc1 [Compound 29] | 100% | 100%
[O-][N+]1(Cc2ccc(-c3ncccc3Cl)cc2)CCC(O)(C(c2ccc(OC(F)(F)F)cc2)c2ccc(OC(F)(F)F)cc2)CC1 (stereo not drawn) [Compound 411] | 100% | 100%
